{"source": "ChEMBL document CHEMBL1127193", "about": "“High-purity porcine pancreatic lipase: novel effects in catalyzing hydrolysis of esters derived from bicyclo[3.2.0]hept-2-EN-6-OLS” (Bioorg Med Chem Lett, 1993)", "key": {"[1]": {"biological_target": "T1, Pancreatic triacylglycerol lipase (Homo sapiens, UniProt P16233)", "T1 sequence (P16233 whole entry)": "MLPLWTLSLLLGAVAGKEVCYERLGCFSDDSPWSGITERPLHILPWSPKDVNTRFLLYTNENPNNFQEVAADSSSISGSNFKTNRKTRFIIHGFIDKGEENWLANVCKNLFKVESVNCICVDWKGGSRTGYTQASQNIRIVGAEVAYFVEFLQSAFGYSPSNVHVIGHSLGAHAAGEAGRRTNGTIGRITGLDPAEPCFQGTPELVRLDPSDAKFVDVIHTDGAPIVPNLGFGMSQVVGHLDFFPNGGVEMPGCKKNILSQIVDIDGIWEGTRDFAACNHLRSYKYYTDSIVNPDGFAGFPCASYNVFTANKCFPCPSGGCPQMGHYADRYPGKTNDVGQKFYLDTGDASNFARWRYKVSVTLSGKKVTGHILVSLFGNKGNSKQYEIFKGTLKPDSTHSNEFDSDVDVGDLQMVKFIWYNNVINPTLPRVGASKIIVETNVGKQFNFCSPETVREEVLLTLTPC", "test": "Tested for hydrolysis with 0.2 ug/mL of PPL (porcine pancreatic lipase) at a compound dose of 0.2 g", "design": "species or system Sus scrofa", "settings": "target entry is the homologue from another species"}, "[2]": {"biological_target": "T1, Pancreatic triacylglycerol lipase", "test": "Tested for hydrolysis with 0.2 ug/mL of PPL (porcine pancreatic lipase), 1.5 ug/mL of colipase and 4 mM sodium taurodeoxycholatet (NaTDC) at a compound concentration of 0.2 g", "design": "species or system Sus scrofa", "settings": "target entry is the homologue from another species"}, "[3]": {"biological_target": "T2, Pancreatic triacylglycerol lipase (Homo sapiens) (UniProt P16233)", "T2 sequence (whole entry)": "T1 sequence (P16233 whole entry)", "settings": "Sus scrofa"}, "[4]": {"biological_target": "T2, Pancreatic triacylglycerol lipase (Homo sapiens)", "settings": "Sus scrofa", "remark": "listed apart in the source"}, "[5]": {"biological_target": "T2, Pancreatic triacylglycerol lipase (Homo sapiens)", "test": "Tested for hydrolysis with 0.2 ug/mL of PPL (porcine pancreatic lipase) at the compound dose of 0.2 g", "settings": "Sus scrofa; target entry is the homologue from another species"}, "[6]": {"biological_target": "T2, Pancreatic triacylglycerol lipase (Homo sapiens)", "test": "Tested for hydrolysis with 0.5 ug/mL of PPL (porcine pancreatic lipase), 1.5 ug/mL of colipase and 4 mM of sodium taurodeoxycholatet (NaTDC) at the compound dose of 0.2 g", "settings": "Sus scrofa; target entry is the homologue from another species"}, "[7]": {"biological_target": "T2, Pancreatic triacylglycerol lipase (Homo sapiens)", "test": "Tested for hydrolysis with 80 ug/mL of PPL (porcine pancreatic lipase) at the compound dose of 0.1 g", "settings": "Sus scrofa; target entry is the homologue from another species"}, "[8]": {"biological_target": "T2, Pancreatic triacylglycerol lipase (Homo sapiens)", "test": "Tested for hydrolysis with 1.0 ug/mL of PPL (porcine pancreatic lipase) at the compound dose of 0.2 g", "settings": "Sus scrofa; target entry is the homologue from another species"}, "[9]": {"biological_target": "T2, Pancreatic triacylglycerol lipase (Homo sapiens)", "test": "Tested for hydrolysis with 1.0 ug/mL of PPL (porcine pancreatic lipase), 2.2 ug/mL of colipase and 4 mM of sodium taurodeoxycholatet (NaTDC) at the compound dose of 0.2 g", "settings": "Sus scrofa; target entry is the homologue from another species"}, "[10]": {"biological_target": "T2, Pancreatic triacylglycerol lipase (Homo sapiens)", "test": "Tested for hydrolysis with 200 ug/mL of PPL (porcine pancreatic lipase) and sodium taurodeoxycholatet (NaTDC) at the compound dose of 0.2 g", "settings": "Sus scrofa; target entry is the homologue from another species"}, "[11]": {"biological_target": "T2, Pancreatic triacylglycerol lipase (Homo sapiens)", "test": "Tested for hydrolysis with 20 ug/mL of PPL (porcine pancreatic lipase) and sodium taurodeoxycholatet (NaTDC) at the compound dose of 0.2 g", "settings": "Sus scrofa; target entry is the homologue from another species"}}}
{"smiles": "CCCC(=O)OCC(COC(=O)CCC)OC(=O)CCC", "note": "[TRIBUTYRIN]", "values": [{"measurement": "kcat", "setting": "[1]", "result": 1100, "unit": "s⁻¹"}, {"measurement": "kcat", "setting": "[2]", "result": "< 1", "unit": "s⁻¹"}, {"measurement": "k cat", "setting": "[3]", "result": 4900, "unit": "s⁻¹"}, {"measurement": "k cat", "setting": "[4]", "result": 5100, "unit": "s⁻¹"}]}
{"smiles": "CCCC(=O)O[C@@H]1C[C@@H]2C=CC[C@@H]21", "values": [{"measurement": "k cat", "setting": "[5]", "result": 3870, "unit": "s⁻¹"}, {"measurement": "k cat", "setting": "[6]", "result": 3560, "unit": "s⁻¹"}]}
{"smiles": "CC(=O)O[C@@H]1C[C@@H]2C=CC[C@@H]21", "values": [{"measurement": "k cat", "setting": "[7]", "result": "< 9", "unit": "s⁻¹"}]}
{"smiles": "CCCC(=O)O[C@@H]1C[C@@H]2C=CC[C@@H]21.CCCC(=O)O[C@@H]1C[C@H]2C=CC[C@@H]21", "values": [{"measurement": "k cat", "setting": "[8]", "result": 420, "unit": "s⁻¹"}, {"measurement": "k cat", "setting": "[9]", "result": 400, "unit": "s⁻¹"}]}
{"smiles": "CCCC(=O)O[C@H]1C[C@@H]2C=CC[C@H]12", "values": [{"measurement": "k cat", "setting": "[10]", "result": "< 5", "unit": "s⁻¹"}, {"measurement": "k cat", "setting": "[11]", "result": "< 4", "unit": "s⁻¹"}]}
